Where two headings read alike, the source gives them in different places.
Tests used:
SARS-CoV-2 M^pro = SARS-CoV-2 M^pro (Severe acute respiratory syndrome coronavirus 2, UniProt P0DTD1); assay: biochemical
[1] = Table S2, PL^pro inhibitors, same inhibitor concentration
[2] = Table S1, M^pro inhibitors, same inhibitor concentration (10 µg/mL)
[3] = read-out: IC50 / inhibitory activity against M^pro
[4] = Table S3, representative dual inhibitors, read-out: IC50 for M^pro
[5] = Table S1, M^pro inhibitors, 40 nmol/L enzyme, 20 µmol/L substrate, read-out: IC50

SMILES	Cytotoxicity activity (%) (Vero cells; [1])	Cytotoxicity activity (%) (Vero cells; [2])	IC50 (SARS-CoV-2 M^pro; IC50 (μM) at S/KM 1) [µM]	IC50 (SARS-CoV-2 M^pro; IC50 (μM) at S/KM 2) [µM]	IC50 (SARS-CoV-2 M^pro; IC50 (μM) at S/KM 1/2) [µM]	IC50 (SARS-CoV-2 M^pro; [4]) [µM]	IC50 (SARS-CoV-2 M^pro; [5]) [µM]	other results
CCC(C(=O)NCc1ccco1)n1c(Cc2c(Cl)cccc2Cl)nc2ccccc21 (stereo not shown) [CD3226-D010]	-22.39							
CC(C(=O)NCc1ccco1)n1c(Cc2c(Cl)cccc2Cl)nc2ccccc21 (stereo not shown) [CD3531-C011]	-14.28							
COc1ccc(CN2C(=O)NC(=O)/C(=C\c3ccco3)C2=O)cc1 [CDE0972-G011]		-7.84						IC50 (SARS-CoV-2 M^pro; read-out: IC50 (μM) at S/KM 1): 2.86 ± 0.53 µM; IC50 (SARS-CoV-2 M^pro; read-out: IC50 (μM) at S/KM 1/2): 2.17 ± 0.2 µM; IC50 (SARS-CoV-2 M^pro; read-out: IC50 (μM) at S/KM 2): 3.5 ± 0.42 µM
O=C(NCc1n[nH]c(=S)n1-c1ccc(Br)cc1)c1ccc(Cl)cc1Cl [JK0108-D008]	-8.62		4.37 ± 0.84	5.83 ± 1.68				IC50 (SARS-CoV-2 M^pro; [3]): 0.5 µM
CCOc1cc(C(=O)NCc2n[nH]c(=S)n2-c2ccc(Br)cc2)cc(OCC)c1OCC [JK0109-B004]	-7.5		1.62 ± 0.24	2.17 ± 0.27	1.01 ± 0.25	9.7 ± 0.1		
COc1ccc(-n2c(CNC(=O)COc3ccc(Cl)cc3Cl)n[nH]c2=S)cc1 [JK0109-B011]	-7.31		1.53 ± 0.58		1.33 ± 0.26	21.8 ± 0.3		
COc1ccc(-n2c(S)nnc2CNC(=O)c2cc(OC)c(OC)c(OC)c2)cc1 [JK0109-C011]	-9.42		16.1 ± 3.07		2.3 ± 0.96	42.8 ± 1.7		
O=C(COc1ccc(Cl)cc1)NCc1n[nH]c(=S)n1-c1ccc(Br)cc1 [JK0109-H005]	-4.08			3.36 ± 0.47	1.33 ± 0.28	4.2 ± 0.7		IC50 (μM) at S/KM 1 (SARS-CoV-2 M^pro): 4.17 ± 1.29 µM
O=c1sc2ccccc2n1Cc1n[nH]c(=S)n1-c1ccccc1 [JK0946-F007]	-4.63		9.67 ± 3.64	8.97 ± 2.32	3.56 ± 0.62	8.7 ± 0.9		IC50 (SARS-CoV-2 M^pro; [3]): 4.2 ± 0.6 µM
COc1ccc(-n2c(S)nnc2CNc2ccc(C)cc2)cc1 [RUS0105-C005]		5.87					0.478 ± 0.009	
O=C1NC(=O)C(=Cc2ccc(-c3cccc(Cl)c3)o2)C(=O)N1 [RUS0245-E010]		-8.14	0.25 ± 0.04	0.34 ± 0.09	0.34 ± 0.04		0.196 ± 0.009	
O=C(Oc1cncc(Cl)c1)c1sccc1Cl [WNN2048-F004]		6.16	0.35 ± 0.11	0.33 ± 0.07			0.131 ± 0.011	dependence of apparent IC50 on substrate concentration (SARS-CoV-2 M^pro): consistent IC50 that is not affected by substrate concentration; IC50 (SARS-CoV-2 M^pro; running text and Figure 4A, read-out: IC50 against M^pro): 0.103 ± 0.0052 µM; cytotoxicity effect (Vero cells; in words): without cytotoxicity effect
Cc1ccc(NCc2n[nH]c(=S)n2-c2ccccc2)cc1 [WNN2867-E005]		-6.94					0.466 ± 0.101	
O=C1NC(=O)N(Cc2ccccc2)C(=O)C1=Cc1ccco1 [WNN3797-H008]		-7.75		0.55 ± 0.02	0.67 ± 0.28		0.172	
O=C1NC(=O)C(=Cc2ccc(-c3cccc(C(F)(F)F)c3)o2)C(=O)N1 [WNN3953-B007]		13.01	0.77 ± 0.14	0.53 ± 0.1			0.16 ± 0.009	
O=C1NC(=O)C(=Cc2ccc(-c3cccc(Cl)c3Cl)o2)C(=O)N1 [WNN3989-H007]		-4.89			0.11 ± 0.01		0.552 ± 0.12	

Reference: paper PMC9871955, “High-throughput screening of SARS-CoV-2 main and papain-like protease inhibitors” (Protein & Cell, 2022)
